# Tests used:
# [1] = test system: Candida albicans strain STY31; experiment: antifungal activity against MDR fungal strains and parents; format: cell-based; settings: C. albicans STY31, 5674 derivative, deletion of CDR1 and CDR2
# Protocol: (§1) For the determination of antifungal activity in vitro we used method of serial dilution in buffered medium RPMI 1640, pH 7.0, in a 96-wells microplates, according to the standard procedure (National Committee for Clinical Laboratory Standards. Reference method for broth dilution antifungal susceptibility testing of yeast, approved standard, 2nd ed. M27-A2 vol. 22 Wayne, Pa., 2002). The optical density of cells suspension was measured using a microplates reader (Victor^3, Perkin-Elmer) at the wavelength λ=531 nm (A531). On the basis of obtained results the diagrams of relation between A531 values and concentration of examined compound were made.
# [2] = test system: Candida albicans clinical strain Gu5 (CaCdr1p, CaCdr2p); experiment: as above; format: cell-based; settings: C. albicans Gu5 (CaCdr1p, CaCdr2p), fluconazole-resistant
# Protocol: as §1
# [3] = test system: Candida albicans clinical strain B3; experiment: as above; format: cell-based; settings: C. albicans B3, fluconazole sensitive, parent strain for B4
# Protocol: as §1
# [4] = test system: Candida albicans clinical strain Gu4; experiment: as above; format: cell-based; settings: C. albicans Gu4, fluconazole sensitive, parent strain for Gu5
# Protocol: as §1
# [5] = test system: Candida albicans clinical strain B4 (CaMdr1p); experiment: as above; format: cell-based; settings: C. albicans B4 (CaMdr1p), fluconazole-resistant
# Protocol: as §1
# [6] = test system: Candida albicans clinical strain F5 (CaMdr1p); experiment: as above; format: cell-based; settings: C. albicans F5 (CaMdr1p), fluconazole-resistant
# Protocol: as §1
# [7] = test system: Candida albicans clinical strain F2; experiment: as above; format: cell-based; settings: C. albicans F2, fluconazole sensitive, parent strain for F5
# Protocol: as §1
# [8] = test system: Candida albicans strain 5674 (CaCdr1p, CaCdr2p); experiment: as above; format: cell-based; settings: C. albicans 5674 (CaCdr1p, CaCdr2p)
# Protocol: as §1
# [9] = test system: Candida albicans strain STY7 (CaCdr1p); experiment: as above; format: cell-based; settings: C. albicans STY7 (CaCdr1p), 5674 derivative, deletion of CDR2
# Protocol: as §1
# LLC-PK1 cells = experiment: cytotoxic activity against mammalian cells in tissue culture (MTT); format: cell-based, pig
# Human erythrocytes = experiment: hemotoxicity determination (hemolytic activity); format: cell-based
# In short: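 Human erythrocytes (2×10^7/ml in saline) were incubated with serially diluted compound for 30 min at 37 °C and then centrifuged. Released haemoglobin was read at A540 against a 0.1% Triton X-100 full-lysis control. EH50 is the interpolated concentration giving 50% of the control A540.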
# [10] = test system: Candida stellatoidea CBS 1905; experiment: antifungal activity in vitro, broader spectrum; format: cell-based
# Protocol: as §1
# (§2) Obtained results are presented below in tables 2A and 2B.
# [11] = test system: Candida pseudotropicalis KKP 324; experiment: antifungal activity in vitro, broader spectrum; format: cell-based
# Protocol: as §1, §2
# [12] = test system: Candida dubliniensis CBS 7987; experiment: antifungal activity in vitro, broader spectrum; format: cell-based
# Protocol: as §1, §2
# [13] = test system: Trichoderma viride LOCK E159; experiment: antifungal activity in vitro, broader spectrum; format: cell-based
# Protocol: as §1, §2
# [14] = test system: Candida parapsilosis DSM 5784; experiment: antifungal activity in vitro, broader spectrum; format: cell-based
# Protocol: as §1, §2
# Candida arborea KKP 319 = experiment: antifungal activity in vitro, broader spectrum; format: cell-based
# Protocol: as §1, §2
# [15] = test system: Candida lipolytica KKP 322; experiment: antifungal activity in vitro, broader spectrum; format: cell-based
# Protocol: as §1, §2
# [16] = test system: Aspergillus niger LOCK E201; experiment: antifungal activity in vitro, broader spectrum; format: cell-based
# Protocol: as §1, §2
# Candida albicans SC 5314 = experiment: antifungal activity in vitro, broader spectrum; format: cell-based
# Protocol: as §1, §2
# [17] = test system: Candida quilliermondii DSM 11947; experiment: antifungal activity in vitro, broader spectrum; format: cell-based
# Protocol: as §1, §2
# HepG2 cells = experiment: cytotoxic activity against mammalian cells in tissue culture (MTT); format: cell-based, human
# CCRF-CEM cells = experiment: as above; format: cell-based, human
# [18] = test system: Saccharomyces cerevisiae ATCC 9763; experiment: antifungal activity in vitro, serial dilution in RPMI 1640; format: cell-based; settings: RPMI 1640, pH 7.0; for Antifungal activity IC50: Saccharomyces cerevisiae ATCC 9763 (first head over MIC and IC50); for Antifungal activity MIC: Saccharomyces cerevisiae ATCC 9763
# In short: (§3)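 Broth serial dilution was run in buffered RPMI 1640, pH 7.0, per […] M27-A2. Growth was read as optical density at 531 nm (A531) and plotted against compound concentration.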
# [19] = test system: Candida lusitaniae DSM 70102; experiment: as above; format: cell-based
# In short: as §3
# Candida krusei DSM 6128 = experiment: as above; format: cell-based
# In short: as §3
# [20] = test system: Candida albicans ATCC 10231; experiment: as above; format: cell-based
# In short: as §3
# [21] = test system: Candida glabrata DSM 11226; experiment: as above; format: cell-based
# In short: as §3
# [22] = test system: Candida tropicalis KKP 334; experiment: as above; format: cell-based
# In short: as §3
Molecule,Antifungal activity MIC [1],Antifungal activity MIC [2],Antifungal activity MIC [3],Antifungal activity MIC [4],Antifungal activity MIC [5],Antifungal activity MIC [6],Antifungal activity MIC [7],Antifungal activity MIC [8],Antifungal activity MIC [9],IC50 (cytotoxic activity) (LLC-PK1 cells),Hemotoxi EH50 (Human erythrocytes),Antifungal activity MIC [10],Antifungal activity MIC [11],Antifungal activity MIC [12],Antifungal activity MIC [13],Antifungal activity MIC [14],Antifungal activity MIC (Candida arborea KKP 319),Antifungal activity MIC [15],Antifungal activity MIC [16],Antifungal activity MIC (Candida albicans SC 5314),further results
"C[C@@H]1[C@H](O)[C@@H](C)/C=C/C=C/C=C/C=C/C=C/C=C/C=C/[C@H](O[C@@H]2O[C@H](C)[C@@H](O)[C@H](NC(=O)[C@@H](N)Cc3ccc([N+](=O)[O-])cc3)[C@@H]2O)C[C@@H]2O[C@](O)(C[C@@H](O)C[C@@H](O)[C@H](O)CC[C@@H](O)C[C@@H](O)CC(=O)O[C@H]1C)C[C@H](O)[C@H]2C(=O)O [Compound A33, N-L-p-nitrophenylalanylamphotericin B]",0.5 µg/mL,1 µg/mL,0.5 µg/mL,1 µg/mL,1 µg/mL,8 µg/mL,4 µg/mL,2 µg/mL,1 µg/mL,>100 µg/mL,>100 µg/mL,1 µg/mL,1 µg/mL,1 µg/mL,4 µg/mL,1 µg/mL,2 µg/mL,1 µg/mL,1 µg/mL,1 µg/mL,Antifungal activity MIC [17]: 1 µg/mL; IC50 (cytotoxic activity) (HepG2 cells): >100 µg/mL; IC50 (cytotoxic activity) (CCRF-CEM cells): >100 µg/mL; Antifungal activity IC50 [18]: 1.39 µg/mL; Antifungal activity MIC [18]: 2 µg/mL; Antifungal activity MIC [19]: 2 µg/mL; Antifungal activity MIC (Candida krusei DSM 6128): 4 µg/mL; Antifungal activity MIC [20]: 2 µg/mL; Antifungal activity MIC [21]: 4 µg/mL; Antifungal activity MIC [22]: 4 µg/mL
"N-(L-N,N-diethylphenylalanyl)amphotericin B [Compound A42]",4 µg/mL,4 µg/mL,2 µg/mL,2 µg/mL,8 µg/mL,2 µg/mL,1 µg/mL,4 µg/mL,4 µg/mL,>100 µg/mL,>100 µg/mL,4 µg/mL,4 µg/mL,2 µg/mL,2 µg/mL,4 µg/mL,4 µg/mL,4 µg/mL,1 µg/mL,4 µg/mL,Antifungal activity MIC [17]: 4 µg/mL; IC50 (cytotoxic activity) (HepG2 cells): >100 µg/mL; IC50 (cytotoxic activity) (CCRF-CEM cells): >100 µg/mL; Antifungal activity IC50 [18]: 2.75 µg/mL; Antifungal activity MIC [18]: 4 µg/mL; Antifungal activity MIC [19]: 4 µg/mL; Antifungal activity MIC (Candida krusei DSM 6128): 8 µg/mL; Antifungal activity MIC [20]: 4 µg/mL; Antifungal activity MIC [21]: 8 µg/mL; Antifungal activity MIC [22]: 4 µg/mL
N-methyl-L-(O^γ-tert-butyl)glutamylamphotericin B [Compound A34],2 µg/mL,2 µg/mL,1 µg/mL,1 µg/mL,2 µg/mL,8 µg/mL,4 µg/mL,4 µg/mL,2 µg/mL,>100 µg/mL,>100 µg/mL,1 µg/mL,1 µg/mL,1 µg/mL,4 µg/mL,1 µg/mL,4 µg/mL,1 µg/mL,2 µg/mL,1 µg/mL,Antifungal activity MIC [17]: 2 µg/mL; IC50 (cytotoxic activity) (HepG2 cells): >100 µg/mL; IC50 (cytotoxic activity) (CCRF-CEM cells): >100 µg/mL; Antifungal activity IC50 [18]: 1.22 µg/mL; Antifungal activity MIC [18]: 2 µg/mL; Antifungal activity MIC [19]: 2 µg/mL; Antifungal activity MIC (Candida krusei DSM 6128): 4 µg/mL; Antifungal activity MIC [20]: 4 µg/mL; Antifungal activity MIC [21]: 4 µg/mL; Antifungal activity MIC [22]: 4 µg/mL
"N-(4-N,N-diethylaminobenzyl)amphotericin B [Compound A19]",1 µg/mL,1 µg/mL,1 µg/mL,1 µg/mL,2 µg/mL,2 µg/mL,2 µg/mL,1 µg/mL,1 µg/mL,>100 µg/mL,>100 µg/mL,1 µg/mL,0.5 µg/mL,0.5 µg/mL,4 µg/mL,2 µg/mL,2 µg/mL,2 µg/mL,1 µg/mL,0.5 µg/mL,Antifungal activity MIC [17]: 2 µg/mL; IC50 (cytotoxic activity) (HepG2 cells): >100 µg/mL; IC50 (cytotoxic activity) (CCRF-CEM cells): >100 µg/mL; Antifungal activity IC50 [18]: 0.53 µg/mL; Antifungal activity MIC [18]: 1 µg/mL; Antifungal activity MIC [19]: 1 µg/mL; Antifungal activity MIC (Candida krusei DSM 6128): 2 µg/mL; Antifungal activity MIC [20]: 1 µg/mL; Antifungal activity MIC [21]: 2 µg/mL; Antifungal activity MIC [22]: 1 µg/mL

# — US9745335B2 (Blirt S.A., priority 2012, dated 2017)
